Activity calls are given as the source filed them. The calls are words filed in the database; no cut-off is given here.
How the values were obtained:
[1] = biological target: T1, C-C chemokine receptor type 2 (Homo sapiens, UniProt P41597); assay: Displacement of [125I]SDF1alpha from CCR2/CXCR4 expressed in CHOK1 cells; type: cell-based; conditions: CHO-K1; concentration not given here
Target sequence in this assay (P41597 whole entry, looked up): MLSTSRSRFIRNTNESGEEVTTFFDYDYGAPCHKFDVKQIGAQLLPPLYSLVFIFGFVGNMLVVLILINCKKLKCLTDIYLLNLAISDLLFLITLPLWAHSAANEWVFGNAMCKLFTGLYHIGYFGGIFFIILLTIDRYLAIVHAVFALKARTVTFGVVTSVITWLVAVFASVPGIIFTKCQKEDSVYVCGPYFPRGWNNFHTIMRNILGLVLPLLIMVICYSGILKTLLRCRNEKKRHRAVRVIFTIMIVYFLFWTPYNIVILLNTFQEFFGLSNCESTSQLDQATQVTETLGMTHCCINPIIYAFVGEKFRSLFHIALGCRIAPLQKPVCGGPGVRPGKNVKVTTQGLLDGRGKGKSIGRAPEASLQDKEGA

[2] = biological target: T1, C-C chemokine receptor type 2; assay: Displacement of [125I]MCP1 from CCR2/CXCR4 expressed in CHOK1 cells; type: cell-based; conditions: CHO-K1; concentration not given here
Target sequence in this assay (P41597 whole entry, looked up): as above

Homo sapiens = species: Homo sapiens; assay: Inhibition of migration of human CD4+ lymphoblasts towards MCP1 by chemotaxis assay; type: functional
[3] = biological target: T1, C-C chemokine receptor type 2; assay: biochemical
Target sequence in this assay (P41597 whole entry): as the sequence (P41597 whole entry, looked up) above
Description: Displacement of [125I]MCP1 from CCR2 expressed in CHOK1 cells

inhibition [1] | inhibition [2] | IC50 [3] | Structure (SMILES) | Activity (Homo sapiens)
38.1% | 90.7% | 0.25 nM | Cc1ccc(-c2ccc3c(c2)C=C(C(=O)Nc2ccc(C[N+](C)(C)C4CCOCC4)cc2)CCC3)cc1 | Active
87.1% | 36.2% | – | c1cc(CN2CCCNCCNCCCNCC2)ccc1CN1CCCNCCNCCCNCC1 | –
